From patent US10669240B2, “5-substituted indazole-3-carboxamides and preparation and use thereof” (Samumed, LLC, priority 2014, dated 2020)
pEC50: −log10 of the molar value.

Molecular target: DYRK1A (Homo sapiens (Human), UniProt Q13627)
Assay: DYRK1A activity Tau assay: pSer396 Tau in SH-SY5Y cells by ELISA / western blot
Assay type: cell-based
Settings: overnight (16-18 h) exposure
Source text: In another example, in vitro assays for DYRK1A biological activity may be used, e.g. regulation of microtubule-associated protein tau (MAPT/Tau) phosphorylation in neuronal cell line such as the human SH-SY5Y neuroblastoma cell line. Assays for DYRK1a-regulated level of phosphorylation can include monitoring levels of basal pSer396 Tau, which can be measured, for example, by serial dilutions of a candidate inhibitor composition using a ten micromolar top concentration and detected by ELISA or Western Blotting. An exemplary assay for DYRK-1a-regulated phosphorylation uses the SH-SY5Y cells cultured in a 96 well plate format for a period of time sufficient to stabilize microtubules and Tau phosphorylation, usually at least 2 days, then treated with a 1/3 serial dilution of compounds overnight and lysed. The cell lysate is resolved by SDS PAGE, then transferred to nitrocellulose and probed with an antibody specific for pSer396 Tau.
In a further example, the activity of a candidate compound can be measured by ELISA by adding the lysate mentioned above onto total Tau-coated plates and detected with a specific pSer396 antibody.

pEC50	SMILES
7.64	CC(F)(F)CN1CCC(NC(=O)c2n[nH]c3ccc(-c4cncc(F)c4)cc23)CC1 [Compound 1301, N-(1-(2,2-Difluoropropyl)piperidin-4-yl)-5-(5-fluoropyridin-3-yl)-1H-indazole-3-carboxamide]
7.01	CC(C)(F)CN1CCC(NC(=O)c2n[nH]c3ccc(-c4cnccn4)cc23)CC1 [Compound 1319, N-(1-(2-Fluoro-2-methylpropyl)piperidin-4-yl)-5-(pyrazin-2-yl)-1H-indazole-3-carboxamide]
7.66	O=C(NC1CCCCC1)c1n[nH]c2ccc(-c3cncc(F)c3)cc12 [Compound 1282, N-Cyclohexyl-5-(5-fluoropyridin-3-yl)-1H-indazole-3-carboxamide]
7.66	CC(C)CNC(=O)c1n[nH]c2ccc(-c3cccnc3F)cc12 [Compound 1336, 5-(2-Fluoropyridin-3-yl)-N-isobutyl-1H-indazole-3-carboxamide]
7.82	O=C(NC1Cc2ccccc2C1)c1n[nH]c2ccc(-c3cncc(CN4CCCCC4)c3)cc12 [Compound 24, N-(2,3-Dihydro-1H-inden-2-yl)-5-(5-(piperidin-1-ylmethyl)pyridin-3-yl)-1H-indazole-3-carboxamide]
6.38	CC(C)(C)NC(=O)c1n[nH]c2ccc(-c3cncc(N4CCCC4)c3)cc12 [Compound 1214, N-(tert-Butyl)-5-(5-(pyrrolidin-1-yl)pyridin-3-yl)-1H-indazole-3-carboxamide]
7.36	CC(C)CN1CCC(NC(=O)c2n[nH]c3ccc(-c4cncc(F)c4)cc23)CC1 [Compound 1306, 5-(5-Fluoropyridin-3-yl)-N-(1-isobutylpiperidin-4-yl)-1H-indazole-3-carboxamide]
7.72	CC(C)(F)CN1CCC(NC(=O)c2n[nH]c3ccc(-c4cncc(F)c4)cc23)CC1 [Compound 1310, N-(1-(2-Fluoro-2-methylpropyl)piperidin-4-yl)-5-(5-fluoropyridin-3-yl)-1H-indazole-3-carboxamide]
7.72	O=C(NC1CC1)c1n[nH]c2ccc(-c3cncc(CN4CCC4)c3)cc12 [Compound 1271, 5-(5-(Azetidin-1-ylmethyl)pyridin-3-yl)-N-cyclopropyl-1H-indazole-3-carboxamide]
7.92	CC(C)CCN1CCC(NC(=O)c2n[nH]c3ccc(-c4cccnc4)cc23)CC1 [Compound 1316, N-(1-Isopentylpiperidin-4-yl)-5-(pyridin-3-yl)-1H-indazole-3-carboxamide]
7.46	CC(C)CNC(=O)c1n[nH]c2ccc(-c3cncc(Cl)c3)cc12 [Compound 1255, 5-(5-Chloropyridin-3-yl)-N-isobutyl-1H-indazole-3-carboxamide]
< 5.00	CN1CCC(NC(=O)c2n[nH]c3ccc(-c4ccc(C(F)(F)F)nc4)cc23)CC1 [Compound 94, N-(1-Methylpiperidin-4-yl)-5-(6-(trifluoromethyl)pyridin-3-yl)-1H-indazole-3-carboxamide]
7.70	O=C(NC1CCN(CC(F)F)CC1)c1n[nH]c2ccc(-c3cncc(Cl)c3)cc12 [Compound 1299, 5-(5-Chloropyridin-3-yl)-N-(1-(2,2-difluoroethyl)piperidin-4-yl)-1H-indazole-3-carboxamide]
8.30	C#CCN1CCC(NC(=O)c2n[nH]c3ccc(-c4cccnc4)cc23)CC1 [Compound 349, N-(1-(Prop-2-yn-1-yl)piperidin-4-yl)-5-(pyridin-3-yl)-1H-indazole-3-carboxamide]
8.52	O=C(NC1CCN(Cc2ccccc2)CC1)c1n[nH]c2ccc(-c3cccnc3)cc12 [Compound 1152, N-(1-Benzylpiperidin-4-yl)-5-(pyridin-3-yl)-1H-indazole-3-carboxamide]
6.80	O=C(NC1(c2ccccc2)CC1)c1n[nH]c2ccc(-c3cncc(CN4CCCCC4)c3)cc12 [Compound 36, N-(1-Phenylcyclopropyl)-5-(5-(piperidin-1-ylmethyl)pyridin-3-yl)-1H-indazole-3-carboxamide]
8.00	O=C(Nc1ccc(CN2CCCC2)cc1)c1n[nH]c2ccc(-c3cccnc3)cc12 [Compound 1326, 5-(Pyridin-3-yl)-N-(4-(pyrrolidin-1-ylmethyl)phenyl)-1H-indazole-3-carboxamide]
6.84	CC(C)(C)NC(=O)c1n[nH]c2ccc(-c3cncc(CN4CCCCC4)c3)cc12 [Compound 1202, N-(tert-Butyl)-5-(5-(piperidin-1-ylmethyl)pyridin-3-yl)-1H-indazole-3-carboxamide]
8.05	O=C(NC1CCCC1)c1n[nH]c2ccc(-c3cccnc3)cc12 [Compound 179, N-Cyclopentyl-5-(pyridin-3-yl)-1H-indazole-3-carboxamide]
6.34	CN1CCC(NC(=O)c2n[nH]c3ccc(-c4ccc(F)cc4F)cc23)CC1 [Compound 18, 5-(2,4-Difluorophenyl)-N-(1-methylpiperidin-4-yl)-1H-indazole-3-carboxamide]
6.91	CC[C@@H](C)NC(=O)c1n[nH]c2ccc(-c3cncc(Cl)c3)cc12 [Compound 1256, (R)—N-(sec-butyl)-5-(5-chloropyridin-3-yl)-1H-indazole-3-carboxamide]

pEC50	SMILES
7.64	O=C(NCCN1CCOCC1)c1n[nH]c2ccc(-c3cccc(F)c3F)cc12 [Compound 1268, 5-(2,3-Difluorophenyl)-N-(2-morpholinoethyl)-1H-indazole-3-carboxamide]
7.37	O=C(NCC1CC1)c1n[nH]c2ccc(-c3cncc(Cl)c3)cc12 [Compound 1323, 5-(5-Chloropyridin-3-yl)-N-(cyclopropylmethyl)-1H-indazole-3-carboxamide]
6.93	O=C(Nc1cc(C(F)(F)F)ccn1)c1n[nH]c2ccc(-c3cccnc3)cc12 [Compound 41, 5-(Pyridin-3-yl)-N-(4-(trifluoromethyl)pyridin-2-yl)-1H-indazole-3-carboxamide]
7.89	O=C(Nc1ncccc1C(F)(F)F)c1n[nH]c2ccc(-c3cncc(CN4CCCCC4)c3)cc12 [Compound 59, 5-(5-(Piperidin-1-ylmethyl)pyridin-3-yl)-N-(3-(trifluoromethyl)pyridin-2-yl)-1H-indazole-3-carboxamide]
7.85	CN1CCN(Cc2ccc(NC(=O)c3n[nH]c4ccc(-c5cccc(F)c5F)cc34)cc2)CC1 [Compound 1332, 5-(2,3-Difluorophenyl)-N-(4-((4-methylpiperazin-1-yl)methyl)phenyl)-1H-indazole-3-carboxamide]
8.40	O=C(NCCN1CCCC1)c1n[nH]c2ccc(-c3cccnc3)cc12 [Compound 1195, 5-(Pyridin-3-yl)-N-(2-(pyrrolidin-1-yl)ethyl)-1H-indazole-3-carboxamide]
7.77	O=C(NC1CCC(F)(F)CC1)c1n[nH]c2ccc(-c3cncc(F)c3)cc12 [Compound 1284, N-(4,4-Difluorocyclohexyl)-5-(5-fluoropyridin-3-yl)-1H-indazole-3-carboxamide]
7.52	CC(C)(F)CN1CCC(NC(=O)c2n[nH]c3ccc(-c4cncc(Cl)c4)cc23)CC1 [Compound 1311, 5-(5-Chloropyridin-3-yl)-N-(1-(2-fluoro-2-methylpropyl)piperidin-4-yl)-1H-indazole-3-carboxamide]
6.93	O=C(NCc1cc(F)cc(F)c1)c1n[nH]c2ccc(-c3cc(F)cc(CN4CCCCC4)c3)cc12 [Compound 31, N-(3,5-Difluorobenzyl)-5-(3-fluoro-5-(piperidin-1-ylmethyl)phenyl)-1H-indazole-3-carboxamide]
7.26	CC(C)NC(=O)c1n[nH]c2ccc(-c3cccnc3)cc12 [Compound 7, N-Isopropyl-5-(pyridin-3-yl)-1H-indazole-3-carboxamide]
8.10	CN1CCC(NC(=O)c2n[nH]c3ccc(-c4cncc(CN5CCC(F)(F)C5)c4)cc23)CC1 [Compound 10, 5-(5-((3,3-Difluoropyrrolidin-1-yl)methyl)pyridin-3-yl)-N-(1-methylpiperidin-4-yl)-1H-indazole-3-carboxamide]
7.14	CC(C)CN1CCC(NC(=O)c2n[nH]c3ccc(-c4cccc(F)c4F)cc23)CC1 [Compound 93, 5-(2,3-Difluorophenyl)-N-(1-isobutylpiperidin-4-yl)-1H-indazole-3-carboxamide]
7.96	CN1CCC2(CC1)CC(NC(=O)c1n[nH]c3ccc(-c4cncc(F)c4)cc13)C2 [Compound 1277, 5-(5-Fluoropyridin-3-yl)-N-(7-methyl-7-azaspiro[3.5]nonan-2-yl)-1H-indazole-3-carboxamide]
7.19	O=C(NC1CCCCC1)c1n[nH]c2ccc(-c3cncnc3)cc12 [Compound 1281, N-Cyclohexyl-5-(pyrimidin-5-yl)-1H-indazole-3-carboxamide]
7.27	CN(C)Cc1ccc(NC(=O)c2n[nH]c3ccc(-c4cccc(F)c4F)cc23)cc1 [Compound 1325, 5-(2,3-Difluorophenyl)-N-(4-((dimethylamino)methyl)phenyl)-1H-indazole-3-carboxamide]
7.48	O=C(NC1CCN(CC2CC2)CC1)c1n[nH]c2ccc(-c3cncc(F)c3)cc12 [Compound 1312, N-(1-(Cyclopropylmethyl)piperidin-4-yl)-5-(5-fluoropyridin-3-yl)-1H-indazole-3-carboxamide]
7.09	O=C(Nc1ccnc(C(F)(F)F)c1)c1n[nH]c2ccc(-c3cncc(N4CCCC4)c3)cc12 [Compound 820, 5-(5-(Pyrrolidin-1-yl)pyridin-3-yl)-N-(2-(trifluoromethyl)pyridin-4-yl)-1H-indazole-3-carboxamide]
6.87	O=C(NC1CCN(CC(F)F)CC1)c1n[nH]c2ccc(-c3cccc(F)c3F)cc12 [Compound 1161, N-(1-(2,2-Difluoroethyl)piperidin-4-yl)-5-(2,3-difluorophenyl)-1H-indazole-3-carboxamide]
6.43	CC(C)(C)NC(=O)c1n[nH]c2ccc(-c3cncc(CN4CCCC4)c3)cc12 [Compound 1200, N-(tert-Butyl)-5-(5-(pyrrolidin-1-ylmethyl)pyridin-3-yl)-1H-indazole-3-carboxamide]
5.60	CN1CCC(N(C)C(=O)c2n[nH]c3ccc(-c4cccnc4)cc23)CC1 [Compound 1337, N-Methyl-N-(1-methylpiperidin-4-yl)-5-(pyridin-3-yl)-1H-indazole-3-carboxamide]
